Experimental findings from US10285989B2, “Pyrimidinone amide compounds as PDE2 inhibitors” (Merck Sharp & Dohme Corp., priority 2015, dated 2019) are described below.

Data set [1] addresses Rhesus PDE2A3 (Macaca mulatta, UniProt B3VTJ2). Put plainly: PDE2 fluorescence polarization (IMAP FP) inhibition assay, rhesus PDE2A3. The format is biochemical, rhesus macaque.
The target of data set [2] is human PDE2A1 (Homo sapiens (Human), UniProt O00408). The data set is described as follows: PDE2 IMAP FP inhibition assay, human PDE2A1 (selectivity panel format). The format is biochemical. The method in brief:
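IMAP fluorescence polarization assay; substrate 50 nM FAM-cAMP with 1000 nM cGMP, enzyme at ~20% conversion, in 10 mM Tris pH 7.2, 10 mM MgCl2, 1 mM DTT, 0.01% Tween-20. 60 min room temperature, stopped with IMAP binding reagent, 1 h, then parallel/perpendicular fluorescence read.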

For data set [3], the target named is P-glycoprotein (P-gp) (Homo sapiens (Human), UniProt P08183). The data set is described as follows: P-gp transport, experimental BA/AB ratio, human. Conditions: LLC-PK1, 1 μM substrate concentration. The format is in vitro ADME. An excerpt: (§1) See Doan et al. “Passive permeability and P-glycoprotein-mediated efflux differentiate central nervous system (CNS) and non-CNS marketed drugs”, J. Pharm. Exper. […] Desirable human BA/AB ratio is less than 2.0. […] See, for example, Desai, et al. Integration of in Silico and in Vitro Tools for Scaffold Optimization during Drug Discovery: Predicting P-glycoprotein Efflux” Mol. Pharmac.
Chain of P-glycoprotein (P-gp) (P08183 whole entry): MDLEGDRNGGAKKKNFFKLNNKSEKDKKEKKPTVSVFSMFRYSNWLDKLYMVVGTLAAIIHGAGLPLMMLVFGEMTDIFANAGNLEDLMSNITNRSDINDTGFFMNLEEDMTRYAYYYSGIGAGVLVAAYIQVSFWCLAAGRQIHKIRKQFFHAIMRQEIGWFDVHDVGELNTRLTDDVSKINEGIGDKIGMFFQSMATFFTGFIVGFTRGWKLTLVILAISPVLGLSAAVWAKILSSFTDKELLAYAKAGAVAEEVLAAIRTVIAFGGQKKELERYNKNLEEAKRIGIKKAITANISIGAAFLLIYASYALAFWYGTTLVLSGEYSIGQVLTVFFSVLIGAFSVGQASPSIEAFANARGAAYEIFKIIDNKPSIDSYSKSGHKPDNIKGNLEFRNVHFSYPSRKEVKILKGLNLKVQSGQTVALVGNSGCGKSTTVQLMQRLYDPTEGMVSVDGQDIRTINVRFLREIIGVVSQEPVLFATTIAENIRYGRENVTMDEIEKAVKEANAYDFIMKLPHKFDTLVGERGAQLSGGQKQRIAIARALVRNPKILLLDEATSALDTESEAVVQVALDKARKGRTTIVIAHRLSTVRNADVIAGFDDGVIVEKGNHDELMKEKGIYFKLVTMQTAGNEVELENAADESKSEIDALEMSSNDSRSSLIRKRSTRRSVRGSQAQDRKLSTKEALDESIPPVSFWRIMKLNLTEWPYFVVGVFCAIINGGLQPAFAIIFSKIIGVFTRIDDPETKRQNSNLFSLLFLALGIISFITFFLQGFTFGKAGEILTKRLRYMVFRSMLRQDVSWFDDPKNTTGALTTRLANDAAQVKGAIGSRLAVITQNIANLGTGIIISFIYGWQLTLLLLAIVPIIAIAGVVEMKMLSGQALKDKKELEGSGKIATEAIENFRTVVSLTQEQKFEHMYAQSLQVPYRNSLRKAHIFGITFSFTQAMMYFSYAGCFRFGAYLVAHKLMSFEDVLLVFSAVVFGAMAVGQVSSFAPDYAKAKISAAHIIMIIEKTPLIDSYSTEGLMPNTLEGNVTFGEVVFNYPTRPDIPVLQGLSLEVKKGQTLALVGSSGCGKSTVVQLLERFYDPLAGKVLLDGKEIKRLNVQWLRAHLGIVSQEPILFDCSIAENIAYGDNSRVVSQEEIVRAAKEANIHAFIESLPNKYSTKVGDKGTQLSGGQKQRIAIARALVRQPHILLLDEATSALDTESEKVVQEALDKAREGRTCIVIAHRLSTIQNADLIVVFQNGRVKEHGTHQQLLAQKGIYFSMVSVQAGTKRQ

Data set [4] deals with P-glycoprotein (P-gp, rat Mdr1a) (Rattus norvegicus, UniProt Q6PSM0). The data set is described as follows: P-gp transport, experimental BA/AB ratio, rat LLC-Mdr1a. The format is in vitro ADME. The settings on record: LLC-PK1; rat LLC-Mdrla; 1 μM substrate concentration.
Chain of P-glycoprotein (P-gp, rat Mdr1a) (Q6PSM0 1-1272): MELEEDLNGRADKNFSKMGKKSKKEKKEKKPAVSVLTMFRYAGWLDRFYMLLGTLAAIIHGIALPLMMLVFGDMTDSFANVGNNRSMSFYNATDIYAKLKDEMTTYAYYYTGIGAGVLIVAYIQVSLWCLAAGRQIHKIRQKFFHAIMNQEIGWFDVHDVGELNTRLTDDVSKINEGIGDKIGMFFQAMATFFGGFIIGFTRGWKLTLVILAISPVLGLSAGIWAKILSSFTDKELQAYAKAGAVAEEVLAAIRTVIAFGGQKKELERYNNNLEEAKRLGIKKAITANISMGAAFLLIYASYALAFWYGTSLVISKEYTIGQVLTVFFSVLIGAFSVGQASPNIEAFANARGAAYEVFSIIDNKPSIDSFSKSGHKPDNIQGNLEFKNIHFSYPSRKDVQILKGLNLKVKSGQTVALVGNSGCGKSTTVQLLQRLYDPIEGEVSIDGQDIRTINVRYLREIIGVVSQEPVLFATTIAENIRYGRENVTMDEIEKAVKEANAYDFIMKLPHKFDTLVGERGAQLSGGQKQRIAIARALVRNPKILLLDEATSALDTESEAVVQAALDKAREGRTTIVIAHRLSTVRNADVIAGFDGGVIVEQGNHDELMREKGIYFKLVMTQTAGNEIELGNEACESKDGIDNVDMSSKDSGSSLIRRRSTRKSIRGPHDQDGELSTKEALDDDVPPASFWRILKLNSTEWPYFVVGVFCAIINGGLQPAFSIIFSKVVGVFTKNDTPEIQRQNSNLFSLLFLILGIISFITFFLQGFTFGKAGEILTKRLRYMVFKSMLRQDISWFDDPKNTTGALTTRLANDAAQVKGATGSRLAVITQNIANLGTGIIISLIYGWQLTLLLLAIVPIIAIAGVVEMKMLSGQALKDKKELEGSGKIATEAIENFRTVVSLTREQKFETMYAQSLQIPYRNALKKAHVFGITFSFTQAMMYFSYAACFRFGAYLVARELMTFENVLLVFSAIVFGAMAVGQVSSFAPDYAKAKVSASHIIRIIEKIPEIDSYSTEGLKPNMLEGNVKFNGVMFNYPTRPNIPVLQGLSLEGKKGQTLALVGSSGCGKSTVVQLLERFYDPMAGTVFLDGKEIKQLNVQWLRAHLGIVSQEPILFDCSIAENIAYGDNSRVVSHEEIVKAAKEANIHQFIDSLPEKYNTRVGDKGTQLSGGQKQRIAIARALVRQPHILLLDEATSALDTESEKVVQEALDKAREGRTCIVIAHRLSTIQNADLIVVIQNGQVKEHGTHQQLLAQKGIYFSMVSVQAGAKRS
Text: as §1

[5] abbreviates: Lab B, read-out: Rhesus PDE2 Ki (nM) - Lab B.
[6] abbreviates: Lab B, read-out: Human PDE2 Ki (nM) - Lab B.
Where [7] appears, read: Lab A, read-out: Rhesus PDE2 Ki (nM) - Lab A.
Setting [8] is: Lab A, read-out: Human PDE2 Ki (nM) - Lab A.

Where two headings read alike, the source gives them in different places.

Chain of Rhesus PDE2A3 (B3VTJ2 1-941): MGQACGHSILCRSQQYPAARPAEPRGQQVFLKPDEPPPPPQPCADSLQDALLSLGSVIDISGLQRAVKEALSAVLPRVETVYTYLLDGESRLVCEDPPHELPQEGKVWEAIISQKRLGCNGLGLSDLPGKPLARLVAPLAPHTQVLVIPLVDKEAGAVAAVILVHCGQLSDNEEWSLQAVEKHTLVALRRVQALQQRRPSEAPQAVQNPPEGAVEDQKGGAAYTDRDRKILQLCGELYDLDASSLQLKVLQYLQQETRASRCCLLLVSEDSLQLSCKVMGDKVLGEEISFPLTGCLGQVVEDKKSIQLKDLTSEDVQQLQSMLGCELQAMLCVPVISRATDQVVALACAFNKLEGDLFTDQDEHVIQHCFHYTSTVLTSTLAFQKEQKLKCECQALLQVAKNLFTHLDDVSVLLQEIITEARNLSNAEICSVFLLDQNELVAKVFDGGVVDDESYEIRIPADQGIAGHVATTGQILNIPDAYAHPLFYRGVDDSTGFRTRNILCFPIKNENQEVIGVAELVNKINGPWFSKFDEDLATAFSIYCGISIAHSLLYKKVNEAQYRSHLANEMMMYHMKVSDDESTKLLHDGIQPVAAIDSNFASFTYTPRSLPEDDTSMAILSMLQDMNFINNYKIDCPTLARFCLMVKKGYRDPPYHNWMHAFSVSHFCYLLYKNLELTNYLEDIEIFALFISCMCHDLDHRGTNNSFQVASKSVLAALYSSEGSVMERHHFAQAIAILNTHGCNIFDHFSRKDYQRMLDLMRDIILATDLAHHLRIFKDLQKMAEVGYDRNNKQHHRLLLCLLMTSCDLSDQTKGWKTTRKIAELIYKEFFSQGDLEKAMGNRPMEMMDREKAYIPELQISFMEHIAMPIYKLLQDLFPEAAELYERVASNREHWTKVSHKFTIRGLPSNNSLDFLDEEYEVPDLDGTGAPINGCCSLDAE
Chain of human PDE2A1 (O00408 other isoform, or with tags, fused parts or gaps): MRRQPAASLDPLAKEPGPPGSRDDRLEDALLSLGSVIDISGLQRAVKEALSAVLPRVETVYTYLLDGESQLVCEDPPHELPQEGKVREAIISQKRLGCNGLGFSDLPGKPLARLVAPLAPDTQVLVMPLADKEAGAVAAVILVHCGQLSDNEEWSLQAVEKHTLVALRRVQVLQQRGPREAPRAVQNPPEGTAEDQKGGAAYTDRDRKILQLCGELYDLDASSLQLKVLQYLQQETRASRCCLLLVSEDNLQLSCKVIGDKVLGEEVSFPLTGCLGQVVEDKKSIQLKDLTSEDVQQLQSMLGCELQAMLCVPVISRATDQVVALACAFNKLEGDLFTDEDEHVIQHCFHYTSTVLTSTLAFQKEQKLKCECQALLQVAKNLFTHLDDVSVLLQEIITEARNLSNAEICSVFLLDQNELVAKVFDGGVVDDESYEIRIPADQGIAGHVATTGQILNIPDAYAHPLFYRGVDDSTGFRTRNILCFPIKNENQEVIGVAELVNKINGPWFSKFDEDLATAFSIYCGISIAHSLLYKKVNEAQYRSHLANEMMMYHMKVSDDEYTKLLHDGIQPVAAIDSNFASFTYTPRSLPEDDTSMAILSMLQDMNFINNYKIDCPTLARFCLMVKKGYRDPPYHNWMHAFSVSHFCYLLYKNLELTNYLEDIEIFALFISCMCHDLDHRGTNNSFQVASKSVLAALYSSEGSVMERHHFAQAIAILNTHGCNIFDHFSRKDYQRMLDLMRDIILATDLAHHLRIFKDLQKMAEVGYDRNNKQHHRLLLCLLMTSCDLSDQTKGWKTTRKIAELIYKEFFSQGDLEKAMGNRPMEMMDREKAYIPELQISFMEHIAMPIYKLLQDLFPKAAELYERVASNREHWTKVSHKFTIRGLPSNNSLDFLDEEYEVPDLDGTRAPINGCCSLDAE

With `CN(C)c1nc(C(=O)NC2(c3ccc(S(F)(F)(F)(F)F)cc3)CC2)cc(=O)[nH]1` [Example 45, 2-(dimethylamino)-6-oxo-N-{1-[4-(pentafluoro-λ^6-sulfanyl)phenyl]cyclopropyl}-1,6-dihydropyrimidine-4-carboxamide], the Ki stood at 2.1 nM in data set [1] (setting [5]) and 1.7 nM in data set [2] (setting [6]). Besides, the efflux ratio at 1 μM in data set [3] was 0.6; in data set [4], 10.1.

Regarding `CC(C)[C@@H](NC(=O)c1cc(=O)[nH]c(N(C)C)n1)c1ccc(C(F)(F)F)c(F)c1` [Example 112, 2-(dimethylamino)-N-{(1R)-1-[3-fluoro-4-(trifluoromethyl)phenyl]-2-methylpropyl}-6-oxo-1,6-dihydropyrimidine-4-carboxamide], the Ki was 0.27 nM in data set [1] (setting [7]), 0.44 nM in data set [1] (setting [5]) and 0.55 nM in data set [2] (setting [6]). The efflux ratio at 1 μM in data set [3] came out at 0.7; in data set [4] it was 4.7.

With `CN(C)c1nc(C(=O)N[C@@H](c2ccc(C(C)(C)C)cc2)C2(C)CC2)cc(=O)[nH]1` [Example 44, N-[(R)-(4-tert-butylphenyl)(1-methylcyclopropyl)methyl]-2-(dimethylamino)-6-oxo-1,6-dihydropyrimidine-4-carboxamide], the Ki in data set [1] (setting [5]) was 1.6 nM; in data set [2] (setting [6]), 1.5 nM. The figures for the efflux ratio at 1 μM in data set [3] and in data set [4] were 0.7 and 2.1, respectively.

For the compound `C[C@@H](NC(=O)c1cc(=O)[nH]c(NC2CCC2)n1)c1ccc(C(F)(F)F)cc1` [Example 138, 2-(cyclobutylamino)-6-oxo-N-{(1R)-1-[4-(trifluoromethyl)phenyl]ethyl}-1,6-dihydropyrimidine-4-carboxamide], the figures for the Ki in data set [1] (setting [7]) and in data set [2] (setting [8]) were 67 nM and 38 nM, respectively. Also, the efflux ratio at 1 μM in data set [3] is 1.2; in data set [4] it was 29.8.

In the case of `C[C@@H](NC(=O)c1cc(=O)[nH]c(N(C)C)n1)c1ccc(S(F)(F)(F)(F)F)cc1` [Example 89, 2-(dimethylamino)-6-oxo-N-{(1R)-1-[4-(pentafluoro-λ^6-sulfanyl)phenyl]ethyl}-1,6-dihydropyrimidine-4-carboxamide], the Ki was determined as 1.1 nM in data set [1] (setting [7]) and 0.41 nM in data set [2] (setting [8]). For the same compound, the efflux ratio at 1 μM in data set [3] was 0.4; in data set [4], 2.9.

Consider `CN(C)c1nc(C(=O)N[C@@H](c2ccc(CC(F)(F)F)cc2)C(C)(C)C)cc(=O)[nH]1` [Example 31, 2-(dimethylamino)-N-{(1R)-2,2-dimethyl-1-[4-(2,2,2-trifluoroethyl)phenyl]propyl}-6-oxo-1,6-dihydropyrimidine-4-carboxamide], for which the Ki in data set [1] (setting [5]) was 0.42 nM; in data set [2] (setting [6]), 0.51 nM. In addition, the efflux ratio at 1 μM in data set [3] came out at 1.5; in data set [4], 9.7.

`CC(C)(C)[C@@H](NC(=O)c1cc(=O)[nH]c(N2CC[C@H](F)C2)n1)c1ccc(C(F)(F)F)cc1` [Example 169, N-{(1R)-2,2-dimethyl-1-[4-(trifluoromethyl)phenyl]propyl}-2-[(3S)-3-fluoropyrrolidin-1-yl]-6-oxo-1,6-dihydropyrimidine-4-carboxamide]: the Ki in data set [1] (setting [5]) was found to be 0.14 nM; in data set [2] (setting [6]), 0.17 nM. Further, the efflux ratio at 1 μM is 2.5 in data set [3] and 9.8 in data set [4].

Take `CC(C)OCCCOc1nc(C(=O)NC(C)c2ccc(C(F)(F)F)cc2)cc(=O)[nH]1` (stereo not shown) [Example 183, 2-[3-(1-methylethoxy)propoxy]-6-oxo-N-{1-[4-(trifluoromethyl)phenyl]ethyl}-1,6-dihydro pyrimidine-4-carboxamide]: the results for the Ki in data set [1] (setting [7]) and in data set [2] (setting [8]) were 29 nM and 23 nM, respectively. The efflux ratio at 1 μM in data set [3] was 1.2; in data set [4] it was 7.9.

For `C[C@@H](NC(=O)c1cc(=O)[nH]c(N2CCC(F)(F)C2)n1)c1ccc(C(F)(F)F)cc1` [Example 13, (R)-2-(3,3-difluoropyrrolidin-1-yl)-6-oxo-N-(1-(4-(trifluoromethyl)phenyl)ethyl)-16-dihydropyrimidine-4-carboxamide], the Ki came to 13 nM in data set [1] (setting [7]) and 9.2 nM in data set [2] (setting [8]). In addition, the efflux ratio at 1 μM in data set [3] was 0.6; in data set [4], 5.9.

Take `O=C(N[C@@H](c1ccc(OC(F)(F)F)cc1)C1CC1)c1cc(=O)[nH]c(N2CCCC2)n1` [Example 114, N-{(R)-cyclopropyl[4-(trifluoromethoxy)phenyl]methyl}-6-oxo-2-pyrrolidin-1-yl-1,6-dihydropyrimidine-4-carboxamide]: the inhibitory constant (Ki) was 0.94 nM in data set [1] (setting [7]), 1.5 nM in data set [1] (setting [5]) and 1.5 nM in data set [2] (setting [6]). Also, the efflux ratio at 1 μM in data set [3] came to 0.5; in data set [4] it was 4.

With `CN(C)c1nc(C(=O)N[C@@H](c2ccc(OC(F)(F)F)cc2)C2CC2)cc(=O)[nH]1` [Example 107, N-{(1R)-cyclopropyl[4-(trifluoromethoxy)phenyl]methyl}-2-(dimethylamino)-6-oxo-1,6-dihydropyrimidine-4-carboxamide], the Ki came to 0.93 nM in data set [1] (setting [7]), 2.2 nM in data set [1] (setting [5]) and 1.7 nM in data set [2] (setting [6]). For the same compound, the efflux ratio at 1 μM in data set [3] came to 0.4; in data set [4], 2.2.

Take `CNc1nc(C(=O)N[C@H](C)c2ccc(SC(F)(F)F)cc2)cc(=O)[nH]1` [Example 144, 2-(methylamino)-6-oxo-N-[(1R)-1-{4-[(trifluoromethyl)sulfanyl]phenyl}ethyl]-1,6-dihydro-pyrimidine-4-carboxamide]: the Ki in data set [1] (setting [7]) was 5.7 nM; in data set [2] (setting [8]), 3.4 nM. In addition, the efflux ratio at 1 μM in data set [3] turned out to be 3.3; in data set [4] it was 14.2.

As to `CC(C)[C@@H](NC(=O)c1cc(=O)[nH]c(N(C)C)n1)c1ccc(C2CC2)c(F)c1` [Example 41, N-[(1R)-1-(4-cyclopropyl-3-fluorophenyl)-2-methylpropyl]-2-(dimethylamino)-6-oxo-1,6-dihydropyrimidine-4-carboxamide], the Ki came to 0.31 nM in data set [1] (setting [5]) and 0.36 nM in data set [2] (setting [6]). In addition, the figures for the efflux ratio at 1 μM in data set [3] and in data set [4] were 0.4 and 3.6, respectively.

Turning to `COc1cc(C(F)(F)F)ccc1C(C)(C)NC(=O)c1cc(=O)[nH]c(N(C)C)n1` [Example 79, 2-(dimethylamino)-N-{1-[2-methoxy-4-(trifluoromethyl)phenyl]-1-methylethyl}-6-oxo-1,6-dihydropyrimidine-4-carboxamide], the Ki worked out at 6.4 nM in data set [1] (setting [5]) and 7.7 nM in data set [2] (setting [6]). For the same compound, the efflux ratio at 1 μM came out at 0.9 in data set [3] and 6.2 in data set [4].

Regarding `CC[C@@H](NC(=O)c1cc(=O)[nH]c(N(C)C)n1)c1ccc(OC(F)(F)F)c(F)c1` [Example 104, 2-(dimethylamino)-N-{(1R)-1-[3-fluoro-4-(trifluoromethoxy)phenyl]propyl}-6-oxo-1,6-dihydropyrimidine-4-carboxamide], the inhibition constant Ki was 0.56 nM in data set [1] (setting [7]), 1.1 nM in data set [1] (setting [5]) and 1.1 nM in data set [2] (setting [6]). The efflux ratio at 1 μM was 0.6 in data set [3] and 4.2 in data set [4].

For `C[C@@H](NC(=O)c1cc(=O)[nH]c(N(C)C)n1)c1ccc(OC(F)(F)F)c(F)c1` [Example 90, 2-(dimethylamino)-N-{(1R)-1-[3-fluoro-4-(trifluoromethoxy)phenyl]ethyl}-6-oxo-1,6-dihydropyrimidine-4-carboxamide], the values for the Ki in data set [1] (setting [7]) and in data set [2] (setting [8]) were 0.69 nM and 0.28 nM, respectively. For the same compound, the results for the efflux ratio at 1 μM in data set [3] and in data set [4] were 0.5 and 2.7, respectively.

As for `CC(C)[C@@H](NC(=O)c1cc(=O)[nH]c(N2CC[C@H](F)C2)n1)c1ccc(OC(F)(F)F)c(F)c1` [Example 162, 2-[(3S)-3-fluoropyrrolidin-1-yl]-N-{(1R)-1-[3-fluoro-4-(trifluoromethoxy)phenyl]-2-methylpropyl}-6-oxo-1,6-dihydropyrimidine-4-carboxamide], the Ki in data set [1] (setting [7]) was determined as 0.51 nM; in data set [2] (setting [6]), 0.61 nM. The efflux ratio at 1 μM amounted to 2.5 in data set [3] and 17.9 in data set [4].

In the case of `C[C@@H](NC(=O)c1cc(=O)[nH]c(N2CC[C@H](F)C2)n1)c1ccc(C(F)(F)F)cc1` [Example 12, 2-((S)-3-fluoropyrrolidin-1-yl)-6-oxo-N—((R)-1-(4-(trifluoromethyl)phenyl)ethyl)-1,6-dihydropyrimidine-4-carboxamide], the inhibition constant Ki in data set [1] (setting [7]) came out at 4.5 nM; in data set [2] (setting [8]) it was 1.8 nM. Further, the results for the efflux ratio at 1 μM in data set [3] and in data set [4] were 0.7 and 9, respectively.

With `C[C@@H](NC(=O)c1cc(=O)[nH]c(N(C)C)n1)c1ccc(C(F)(F)F)cc1` [Example 133, 2-(dimethylamino)-6-oxo-N-{(1R)-1-[4-(trifluoromethyl)phenyl]ethyl}-1,6-dihydropyrimidine-4-carboxamide], the Ki came to 2.5 nM in data set [1] (setting [7]), 2.8 nM in data set [1] (setting [5]), 2 nM in data set [2] (setting [8]) and 2.3 nM in data set [2] (setting [6]). The results for the efflux ratio at 1 μM in data set [3] and in data set [4] were 0.5 and 1.8, respectively.
